According to PubChem BioAssay (NCI):
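Results reflect a 48-hour exposure of cells in 96-well plates to compound at five concentrations. TGI denotes the concentration required for complete inhibition of growth.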

Tests used:
Assay in all cases: DTP human tumour cell line panel, 48 h
UACC-62 melanoma = tested on: UACC-62 melanoma
BT-549 breast = tested on: BT-549 breast
TK-10 renal = tested on: TK-10 renal
MCF7 breast = tested on: MCF7 breast
K-562 leukemia = tested on: K-562 leukemia
OVCAR-4 ovarian = tested on: OVCAR-4 ovarian
SK-OV-3 ovarian = tested on: SK-OV-3 ovarian
OVCAR-3 ovarian = tested on: OVCAR-3 ovarian
T-47D breast = tested on: T-47D breast
SK-MEL-2 melanoma = tested on: SK-MEL-2 melanoma
MDA-MB-435 = tested on: MDA-MB-435
M14 melanoma = tested on: M14 melanoma
NCI-H522 lung = tested on: NCI-H522 lung
SNB-19 CNS = tested on: SNB-19 CNS
MDA-N = tested on: MDA-N
SF-539 CNS = tested on: SF-539 CNS
NCI-H23 lung = tested on: NCI-H23 lung
OVCAR-5 ovarian = tested on: OVCAR-5 ovarian
CCRF-CEM leukemia = tested on: CCRF-CEM leukemia
MDA-MB-231 breast = tested on: MDA-MB-231 breast
NCI-H226 lung = tested on: NCI-H226 lung
CAKI-1 renal = tested on: CAKI-1 renal
SK-MEL-5 melanoma = tested on: SK-MEL-5 melanoma
UACC-257 melanoma = tested on: UACC-257 melanoma
MOLT-4 leukemia = tested on: MOLT-4 leukemia
HT29 colon = tested on: HT29 colon
SK-MEL-28 melanoma = tested on: SK-MEL-28 melanoma
HS 578T breast = tested on: HS 578T breast
NCI-H460 lung = tested on: NCI-H460 lung
SF-268 CNS = tested on: SF-268 CNS
A549 NSCLC = tested on: A549 NSCLC
UO-31 renal = tested on: UO-31 renal
HCC-2998 colon = tested on: HCC-2998 colon
IGROV1 ovarian = tested on: IGROV1 ovarian
786-0 renal = tested on: 786-0 renal
KM12 colon = tested on: KM12 colon
HL-60(TB) leukemia = tested on: HL-60(TB) leukemia
RXF 393 renal = tested on: RXF 393 renal
DU-145 prostate = tested on: DU-145 prostate
EKVX NSCLC = tested on: EKVX NSCLC
SN12C renal = tested on: SN12C renal
NCI/ADR-RES ovarian = tested on: NCI/ADR-RES ovarian
HCT-15 colon = tested on: HCT-15 colon
LOX IMVI melanoma = tested on: LOX IMVI melanoma
A498 renal = tested on: A498 renal
HCT-116 colon = tested on: HCT-116 colon
SW-620 colon = tested on: SW-620 colon
OVCAR-8 ovarian = tested on: OVCAR-8 ovarian
SF-295 CNS = tested on: SF-295 CNS
U251 CNS = tested on: U251 CNS
COLO 205 colon = tested on: COLO 205 colon
ACHN renal = tested on: ACHN renal
PC-3 prostate = tested on: PC-3 prostate
HOP-62 NSCLC = tested on: HOP-62 NSCLC
SNB-75 CNS = tested on: SNB-75 CNS
MALME-3M melanoma = tested on: MALME-3M melanoma
HOP-92 NSCLC = tested on: HOP-92 NSCLC
RPMI-8226 leukemia = tested on: RPMI-8226 leukemia

For CCOC(=O)N1c2ccccc2S(=O)(=O)c2ccccc21, the TGI (UACC-62 melanoma) was greater than 100 µM, the TGI (BT-549 breast) was greater than 100 µM and the TGI (TK-10 renal) was greater than 100 µM. The TGI (MCF7 breast) was greater than 100 µM, the TGI (K-562 leukemia) was greater than 100 µM and the TGI (OVCAR-4 ovarian) was greater than 100 µM. The TGI (SK-OV-3 ovarian) was greater than 100 µM, the TGI (OVCAR-3 ovarian) was greater than 100 µM and the TGI (T-47D breast) was greater than 100 µM. The TGI (SK-MEL-2 melanoma) was greater than 100 µM, the TGI (MDA-MB-435) was greater than 100 µM and the TGI (M14 melanoma) was greater than 100 µM. It also gave a TGI (NCI-H522 lung) greater than 100 µM, a TGI (SNB-19 CNS) greater than 100 µM and a TGI (MDA-N) greater than 100 µM. It also gave a TGI (SF-539 CNS) greater than 100 µM, a TGI (NCI-H23 lung) greater than 100 µM and a TGI (OVCAR-5 ovarian) greater than 100 µM. It also gave a TGI (CCRF-CEM leukemia) greater than 100 µM, a TGI (MDA-MB-231 breast) greater than 100 µM and a TGI (NCI-H226 lung) greater than 100 µM. For the same molecule, the TGI (CAKI-1 renal) was greater than 100 µM, the TGI (SK-MEL-5 melanoma) was greater than 100 µM and the TGI (UACC-257 melanoma) was greater than 100 µM. The TGI (MOLT-4 leukemia) was greater than 100 µM, the TGI (HT29 colon) was greater than 100 µM and the TGI (SK-MEL-28 melanoma) was greater than 100 µM. The TGI (HS 578T breast) was greater than 100 µM, the TGI (NCI-H460 lung) was greater than 100 µM and the TGI (SF-268 CNS) was greater than 100 µM. For the same molecule, the TGI (A549 NSCLC) was greater than 100 µM, the TGI (UO-31 renal) was greater than 100 µM and the TGI (HCC-2998 colon) was greater than 100 µM. For the same molecule, the TGI (IGROV1 ovarian) was greater than 100 µM, the TGI (786-0 renal) was greater than 100 µM and the TGI (KM12 colon) was greater than 100 µM. It also gave a TGI (HL-60(TB) leukemia) greater than 100 µM, a TGI (RXF 393 renal) greater than 100 µM and a TGI (DU-145 prostate) greater than 100 µM. The TGI (EKVX NSCLC) was greater than 100 µM, the TGI (SN12C renal) was greater than 100 µM and the TGI (NCI/ADR-RES ovarian) was greater than 100 µM. It also gave a TGI (HCT-15 colon) greater than 100 µM, a TGI (LOX IMVI melanoma) greater than 100 µM and a TGI (A498 renal) greater than 100 µM. It also gave a TGI (HCT-116 colon) greater than 100 µM, a TGI (SW-620 colon) greater than 100 µM and a TGI (OVCAR-8 ovarian) greater than 100 µM. The TGI (SF-295 CNS) was greater than 100 µM, the TGI (U251 CNS) was greater than 100 µM and the TGI (COLO 205 colon) was greater than 100 µM. It also gave a TGI (ACHN renal) greater than 100 µM, a TGI (PC-3 prostate) greater than 100 µM and a TGI (HOP-62 NSCLC) greater than 100 µM.
Work on CN(C)c1ccc(/C=C2\N=C(N/N=C/c3ccccc3)NC2=O)cc1 yielded a TGI (UACC-62 melanoma) greater than 100 µM, a TGI (BT-549 breast) greater than 100 µM and a TGI (TK-10 renal) greater than 100 µM. The TGI (SNB-75 CNS) was greater than 100 µM, the TGI (MCF7 breast) was greater than 100 µM and the TGI (OVCAR-4 ovarian) was greater than 100 µM. For the same molecule, the TGI (SK-OV-3 ovarian) was greater than 100 µM, the TGI (OVCAR-3 ovarian) was greater than 100 µM and the TGI (T-47D breast) was greater than 100 µM. The TGI (SK-MEL-2 melanoma) was greater than 100 µM, the TGI (MDA-MB-435) was greater than 100 µM and the TGI (M14 melanoma) was greater than 100 µM. For the same molecule, the TGI (NCI-H522 lung) was greater than 100 µM, the TGI (SNB-19 CNS) was greater than 100 µM and the TGI (MDA-N) was greater than 100 µM. It also gave a TGI (NCI-H23 lung) greater than 100 µM, a TGI (OVCAR-5 ovarian) greater than 100 µM and a TGI (CCRF-CEM leukemia) greater than 100 µM. It also gave a TGI (MDA-MB-231 breast) greater than 100 µM, a TGI (NCI-H226 lung) greater than 100 µM and a TGI (CAKI-1 renal) greater than 100 µM. It also gave a TGI (SK-MEL-5 melanoma) greater than 100 µM, a TGI (UACC-257 melanoma) greater than 100 µM and a TGI (MOLT-4 leukemia) greater than 100 µM. The TGI (HT29 colon) was greater than 100 µM, the TGI (MALME-3M melanoma) was greater than 100 µM and the TGI (SK-MEL-28 melanoma) was greater than 100 µM. For the same molecule, the TGI (HS 578T breast) was greater than 100 µM, the TGI (NCI-H460 lung) was greater than 100 µM and the TGI (SF-268 CNS) was greater than 100 µM. It also gave a TGI (A549 NSCLC) greater than 100 µM, a TGI (UO-31 renal) greater than 100 µM and a TGI (HCC-2998 colon) greater than 100 µM. For the same molecule, the TGI (IGROV1 ovarian) was greater than 100 µM, the TGI (786-0 renal) was greater than 100 µM and the TGI (KM12 colon) was greater than 100 µM. For the same molecule, the TGI (HL-60(TB) leukemia) was greater than 100 µM, the TGI (RXF 393 renal) was 70.4 µM and the TGI (DU-145 prostate) was greater than 100 µM. For the same molecule, the TGI (EKVX NSCLC) was greater than 100 µM, the TGI (SN12C renal) was greater than 100 µM and the TGI (NCI/ADR-RES ovarian) was greater than 100 µM. It also gave a TGI (HCT-15 colon) greater than 100 µM, a TGI (HOP-92 NSCLC) of 79.1 µM and a TGI (RPMI-8226 leukemia) greater than 100 µM. For the same molecule, the TGI (A498 renal) was greater than 100 µM, the TGI (HCT-116 colon) was greater than 100 µM and the TGI (SW-620 colon) was greater than 100 µM. It also gave a TGI (OVCAR-8 ovarian) of 72.8 µM, a TGI (SF-295 CNS) greater than 100 µM and a TGI (U251 CNS) greater than 100 µM. The TGI (COLO 205 colon) was greater than 100 µM, the TGI (ACHN renal) was greater than 100 µM and the TGI (PC-3 prostate) was greater than 100 µM. It also gave a TGI (HOP-62 NSCLC) greater than 100 µM.
